Reference: article PMC6688508 (Journal of medicinal chemistry, 2019)
“Also recorded” adds a separate entry of the source.

Assays:
[1] = biological target: T1, human D1 (Homo sapiens, UniProt P21728); assay: BRET β-arrestin2 recruitment assay; conditions: for β-arrestin2 recruitment activity in words: D1R BRET assay
[2] = biological target: T1, human D1; assay: D1R GS-mediated GS-cAMP accumulation assay; conditions: for fold reduced potency in the GS-cAMP accumulation assay compared to 1: compared to compound 1; for GS-cAMP accumulation activity in words: D1R GloSensor assay

T1 sequence (P21728 whole entry): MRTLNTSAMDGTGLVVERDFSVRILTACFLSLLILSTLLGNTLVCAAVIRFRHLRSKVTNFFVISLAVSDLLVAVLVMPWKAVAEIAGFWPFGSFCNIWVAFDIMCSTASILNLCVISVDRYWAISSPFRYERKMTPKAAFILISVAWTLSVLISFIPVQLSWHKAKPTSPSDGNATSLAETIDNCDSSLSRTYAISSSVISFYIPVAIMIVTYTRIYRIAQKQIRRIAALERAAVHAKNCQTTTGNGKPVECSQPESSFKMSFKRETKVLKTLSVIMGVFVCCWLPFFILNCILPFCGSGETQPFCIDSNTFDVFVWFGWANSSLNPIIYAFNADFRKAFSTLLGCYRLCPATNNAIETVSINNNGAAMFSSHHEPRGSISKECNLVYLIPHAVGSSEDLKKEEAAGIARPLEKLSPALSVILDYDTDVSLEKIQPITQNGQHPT

Row | SMILES | β-arrestin2 recruitment activity in words [1] | further results
1 | Cc1cc(Oc2nccc3occc23)ccc1-c1c(C)nc2cnccn12 [Compound 4, 4-(3-Methyl-4-(2-methylimidazo[1,2-a]pyrazin-3-yl)phenoxy)-furo[3,2-c]pyridine] |  | fold reduction in potency for β-arrestin2 recruitment compared to 1 ([1]; compared to compound 1): 22 fold; fold reduced potency in the GS-cAMP accumulation assay compared to 1 [2]: 23 fold
2 | Cc1cc(Oc2nccc3occc23)ccc1-c1cccc2nccn12 [Compound 5, 4-(4-(Imidazo[1,2-a]pyridin-5-yl)-3-methylphenoxy)furo[3,2-c]-pyridine] |  | fold reduced potency in the GS-cAMP accumulation assay compared to 1 [2]: approximately 10 fold
3 | COC(=O)c1cccn2c(-c3ccc(Oc4nccc5occc45)cc3C)cnc12 [Compound 6, Methyl-3-(4-(furo[3,2-c]pyridin-4-yloxy)-2-methylphenyl)-imidazo[1,2-a]pyridine-8-carboxylate] | no detectable β-arrestin2 recruitment activity | 
4 | Cc1cc(Oc2nccc3occc23)ccc1-c1nc(N)cnc1C [Compound 7, 6-(4-(Furo[3,2-c]pyridin-4-yloxy)-2-methylphenyl)-5-methylpyrazin-2-amine] | minimal β-arr2 recruitment | 
5 | CCOc1ncnc(C)c1-c1ccc(Oc2nccc3occc23)cc1C [Compound 8, 4-(4-(4-Ethoxy-6-methylpyrimidin-5-yl)-3-methylphenoxy)furo-[3,2-c]pyridine] | not active in the β-arrestin2 recruitment assay | 
6 | Cc1cc(Oc2nccc3occc23)ccc1-c1c(C)cnnc1C [Compound 9, 4-(4-(3,5-Dimethylpyridazin-4-yl)-3-methylphenoxy)furo[3,2-c]-pyridine] | not active in the β-arrestin2 recruitment assay | EC50 [2]: 1 nM
7 | COc1ccc(-c2ccc(Oc3nccc4occc34)cc2C)c(C)n1 [Compound 11, 4-(4-(6-Methoxy-2-methylpyridin-3-yl)-3-methylphenoxy)furo-[3,2-c]pyridine] | inactive in the β-arrestin2 recruitment assay | 
8 | Cc1cc(Oc2nccc3occc23)ccc1-c1cncc(C(N)=O)c1 [Compound 12, 5-(4-(Furo[3,2-c]pyridin-4-yloxy)-2-methylphenyl)nicotinamide] | inactive in the β-arrestin2 recruitment assay | 
9 | Cc1cc(Oc2nccc3occc23)ccc1-c1ccc(C#N)cn1 [Compound 13, 6-(4-(Furo[3,2-c]pyridin-4-yloxy)-2-methylphenyl)nicotinonitrile] | inactive in the β-arrestin2 recruitment assay | 
10 | Cc1cc(-c2c(C)ncc3nccn23)ccc1Oc1nccc2occc12 [Compound 14, 4-(2-Methyl-4-(6-methylimidazo[1,2-a]pyrazin-5-yl)phenoxy)-furo[3,2-c]pyridine] | completely eliminated β-arrestin2 recruitment activity | 
11 | Cc1ncc2nccn2c1-c1ccc(Oc2nccc3occc23)c(C)c1C [Compound 15, 4-(2,3-Dimethyl-4-(6-methylimidazo[1,2-a]pyrazin-5-yl)-phenoxy)furo[3,2-c]pyridine] | inactive in β-arrestin2 recruitment | 
12 | Cc1ncc2nccn2c1-c1ccc(Oc2nccc3occc23)cc1C(F)(F)F [Compound 17, 4-(4-(6-Methylimidazo[1,2-a]pyrazin-5-yl)-3-(trifluoromethyl)-phenoxy)furo[3,2-c]pyridine] | potent full agonist of both signaling pathways | GS-cAMP accumulation activity in words [2]: potent full agonist of both signaling pathways
13 | Cc1ncc2nccn2c1-c1ccc(Oc2nccc3occc23)c(C(F)(F)F)c1 [Compound 18, 4-(4-(6-Methylimidazo[1,2-a]pyrazin-5-yl)-2-(trifluoromethyl)-phenoxy)furo[3,2-c]pyridine] | completely devoid of activity in both the G protein and β-arrestin2 recruitment assays | GS-cAMP accumulation activity in words [2]: completely devoid of activity in both the G protein and β-arrestin2 recruitment assays
14 | Cc1ncc2nccn2c1-c1cc(F)c(Oc2nccc3occc23)c(F)c1 [Compound 19, 4-(2,6-Difluoro-4-(6-methylimidazo[1,2-a]pyrazin-5-yl)-phenoxy)furo[3,2-c]pyridine] | eliminated β-arrestin2 recruitment activity | 
15 | Cc1cc(Nc2nccc3occc23)ccc1-c1c(C)ncc2nccn12 [Compound 20, N-(3-Methyl-4-(6-methylimidazo[1,2-a]pyrazin-5-yl)phenyl)furo-[3,2-c]pyridin-4-amine] | only minimally active in the β-arrestin2 recruitment assay | 
16 | Cc1cc(Oc2nccc3occ(C4CC4)c23)ccc1-c1c(C)ncc2nccn12 [Compound 26, 3-Cyclopropyl-4-(3-methyl-4-(6-methylimidazo[1,2-a]pyrazin-5-yl)phenoxy)furo[3,2-c]pyridine] | diminished β-arrestin2 recruitment activity | 
17 | Cc1cc(Oc2cccc3occc23)ccc1-c1c(C)ncc2nccn12 [Compound 27, 5-(4-(Benzofuran-4-yloxy)-2-methylphenyl)-6-methylimidazo-[1,2-a]pyrazine] | inactivity for β-arrestin2 recruitment | 

Row | SMILES | β-arrestin2 recruitment activity in words [1] | further results
18 | Cc1cc(Oc2nccc3ccccc23)ccc1-c1c(C)ncc2nccn12 [Compound 28, 1-(3-Methyl-4-(6-methylimidazo[1,2-a]pyrazin-5-yl)phenoxy)-isoquinoline] | inactive for β-arrestin2 recruitment | 
19 | Cc1cc(Oc2nccn3ccnc23)ccc1-c1c(C)ncc2nccn12 [Compound 31, 5-(4-(Imidazo[1,2-a]pyrazin-8-yloxy)-2-methylphenyl)-6-methylimidazo[1,2-a]pyrazine] | β-arrestin2 recruitment was undetectable | 
20 | Cc1cc(Oc2nccc3[nH]ncc23)ccc1-c1c(C)ncc2nccn12 [Compound 32, 4-(3-Methyl-4-(6-methylimidazo[1,2-a]pyrazin-5-yl)phenoxy)-1H-pyrazolo[4,3-c]pyridine] | not recovered | 
21 | Cc1cc(Oc2ccccn2)ccc1-c1c(C)ncc2nccn12 [Compound 33, 6-Methyl-5-(2-methyl-4-(pyridin-2-yloxy)phenyl)imidazo[1,2-a]-pyrazine] | very weak activity in the β-arrestin2 recruitment assay | 
22 | Cc1cc(Oc2ncccc2Br)ccc1-c1c(C)ncc2nccn12 [Compound 34, 5-(4-((3-bromopyridin-2-yl)oxy)-2-methylphenyl)-6-methylimidazo[1,2-a]pyrazine] | completely inactive in both pathways | GS-cAMP accumulation activity in words [2]: completely inactive in both pathways
23 | Cc1cc(-c2cccc3nccn23)ccc1Oc1nccc2occc12 [Compound 37, 4-(4-(Imidazo[1,2-a]pyridin-5-yl)-2-methylphenoxy)furo[3,2-c]-pyridine] | eliminated β-arrestin2 recruitment activity | 
24 | Cc1c(Oc2nccc3occc23)ccc(-c2cccc3nccn23)c1C [Compound 38, 4-(4-(Imidazo[1,2-a]pyridin-5-yl)-2,3-dimethylphenoxy)furo[3,2-c]pyridine] | β-arrestin2 recruitment was eliminated | 
25 | Cc1cc(Oc2nccc3occc23)cc(C)c1-c1cccc2nccn12 [Compound 39, 4-(4-(Imidazo[1,2-a]pyridin-5-yl)-3,5-dimethylphenoxy)furo[3,2-c]pyridine] | completely inactive | GS-cAMP accumulation activity in words [2]: completely inactive
26 | FC(F)(F)c1cc(-c2cccc3nccn23)ccc1Oc1nccc2occc12 [Compound 42, 4-(4-(Imidazo[1,2-a]pyridin-5-yl)-2-(trifluoromethyl)phenoxy)-furo[3,2-c]pyridine] | inactive in both G protein and β-arrestin2 recruitment assays | GS-cAMP accumulation activity in words [2]: inactive in both G protein and β-arrestin2 recruitment assays
27 | Fc1cc(-c2cccc3nccn23)cc(F)c1Oc1nccc2occc12 [Compound 43, 4-(2,6-Difluoro-4-(imidazo[1,2-a]pyridin-5-yl)phenoxy)furo[3,2-c]pyridine] | minimal β-arrestin2 recruitment | 
28 | FC(F)(F)c1cc(Oc2nccc3occ(C4CC4)c23)ccc1-c1cccc2nccn12 [Compound 44, 3-Cyclopropyl-4-(4-(imidazo[1,2-a]pyridin-5-yl)-3-(trifluoromethyl)phenoxy)furo[3,2-c]pyridine] | abolished β-arrestin2 recruitment | 
29 | FC(F)(F)c1cc(Oc2nccc3ccccc23)ccc1-c1cccc2nccn12 [Compound 45, 1-(4-(Imidazo[1,2-a]pyridin-5-yl)-3-(trifluoromethyl)phenoxy)-isoquinoline] | β-arrestin2 recruitment still eliminated | 
30 | FC(F)(F)c1cc(Oc2nccc3ccsc23)ccc1-c1cccc2nccn12 [Compound 46, 7-(4-(Imidazo[1,2-a]pyridin-5-yl)-3-(trifluoromethyl)phenoxy)-thieno[2,3-c]pyridine] | minimal β-arr2 recruitment; also recorded: greatly weakened | 
31 | FC(F)(F)c1cc(Oc2nccn3cccc23)ccc1-c1cccc2nccn12 [Compound 47, 5-(4-(Pyrrolo[1,2-a]pyrazin-1-yloxy)-2-(trifluoromethyl)phenyl)-imidazo[1,2-a]pyridine] | completely abrogated | 
32 | FC(F)(F)c1cc(Oc2ccccn2)ccc1-c1cccc2nccn12 [Compound 49, 5-(4-(Pyridin-2-yloxy)-2-(trifluoromethyl)phenyl)imidazo[1,2-a]-pyridine] | no activity in the β-arrestin2 pathway | 
33 | FC(F)(F)c1cc(Oc2cc(N3CCCCC3)ccn2)ccc1-c1cccc2nccn12 [Compound 50, 5-(4-((4-(Piperidin-1-yl)pyridin-2-yl)oxy)-2-(trifluoromethyl)-phenyl)imidazo[1,2-a]pyridine] | inactive in both the GS and β-arrestin2 pathways | GS-cAMP accumulation activity in words [2]: inactive in both the GS and β-arrestin2 pathways
